Laboratory results from PubChem BioAssay AID256 (DTP/NCI, 2004).
Several values for one entry are separate records, joined by “and”; a condition that tells them apart may be missing. Equal values may be shown once. Toxic doses and inconclusive results are not listed. Non-standard residues stand in square brackets, D forms with d. Residues, ends and D or L forms follow the SMILES beside them. ξ: configuration not given here. *: point of attachment. Bz = O=C(c1ccccc1)*; Bn = c1ccc(C*)cc1; ξC = NC(CS)C(=O)O

System: CD2F1 mice, L1210 leukemia ip, survival T/C
Assay: NCI In Vivo Anticancer Drug Screen. Data for tumor model L1210 Leukemia (intraperitoneal) in CD2F1 (CDF1) mice
Conditions: higher = longer survival
Procedure, shortened: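 Vehicle-treated tumor-bearing mice served as controls (C) for compound-treated mice (T). Reported figure is T divided by C.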

[1] = endpoint: mean survival time, dose: 50.0 mg/kg/injection, schedule: Q01DX009 (ip), vehicle: saline with Tween-80
[2] = endpoint: mean survival time, dose: 100.0 mg/kg/injection, schedule: Q01DX009 (ip), vehicle: saline with Tween-80
[3] = endpoint: mean survival time, dose: 100.0 mg/kg/injection, schedule: Q04DX003 (ip), vehicle: saline with Tween-80
[4] = endpoint: mean survival time, dose: 200.0 mg/kg/injection, schedule: Q04DX003 (ip), vehicle: saline with Tween-80
[5] = endpoint: mean survival time, dose: 400.0 mg/kg/injection, schedule: Q04DX003 (ip), vehicle: saline with Tween-80
[6] = endpoint: mean survival time, dose: 12.5 mg/kg/injection, schedule: Q01DX009 (ip), vehicle: saline with Tween-80
[7] = endpoint: mean survival time, dose: 25.0 mg/kg/injection, schedule: Q01DX009 (ip), vehicle: saline with Tween-80
[8] = endpoint: mean survival time, dose: 200.0 mg/kg/injection, schedule: Q01DX009 (ip), vehicle: saline with Tween-80
[9] = endpoint: mean survival time, dose: 400.0 mg/kg/injection, schedule: Q01DX009 (ip), vehicle: saline with Tween-80

CCCC(=O)OCc1cc(=O)n(C)c2c3c4c(cc12)c(C)cc(=O)n4CO3
T/C (endpoint: mean survival time, dose: 1.56 mg/kg/injection, schedule: Q01DX009 (ip), vehicle: Klucel (hydroxypropylcellulose) (HPC)): 97 % of control | T/C (endpoint: mean survival time, dose: 3.12 mg/kg/injection, schedule: Q01DX009 (ip), vehicle: Klucel (hydroxypropylcellulose) (HPC)): 106 % of control and 112 % of control | T/C (endpoint: mean survival time, dose: 6.25 mg/kg/injection, schedule: Q01DX009 (ip), vehicle: Klucel (hydroxypropylcellulose) (HPC)): 116 % of control and 105 % of control and 109 % of control | T/C (endpoint: mean survival time, dose: 12.5 mg/kg/injection, schedule: Q01DX009 (ip), vehicle: Klucel (hydroxypropylcellulose) (HPC)): 113 % of control and 107 % of control and 110 % of control | T/C (endpoint: mean survival time, dose: 25.0 mg/kg/injection, schedule: Q01DX009 (ip), vehicle: Klucel (hydroxypropylcellulose) (HPC)): 117 % of control and 119 % of control and 124 % of control | T/C (endpoint: mean survival time, dose: 50.0 mg/kg/injection, schedule: Q01DX009 (ip), vehicle: Klucel (hydroxypropylcellulose) (HPC)): 118 % of control and 124 % of control | T/C (endpoint: mean survival time, dose: 100.0 mg/kg/injection, schedule: Q01DX009 (ip), vehicle: Klucel (hydroxypropylcellulose) (HPC)): 96 % of control

NNc1ncnc2c1ccn2C1OC(CO)C(O)C1O (stereo not given)
T/C (endpoint: mean survival time, dose: 35.0 mg/kg/injection, schedule: Q01DX001 (ip), vehicle: saline): 116 % of control | T/C (endpoint: mean survival time, dose: 53.0 mg/kg/injection, schedule: Q01DX001 (ip), vehicle: saline): 110 % of control | T/C (endpoint: mean survival time, dose: 80.0 mg/kg/injection, schedule: Q01DX001 (ip), vehicle: saline): 112 % of control | T/C (endpoint: mean survival time, dose: 120.0 mg/kg/injection, schedule: Q01DX001 (ip), vehicle: saline): 116 % of control

COc1cc(OC)c(NC(=O)Nc2cccc(SC)c2)cc1Cl
T/C [1]: 92 % of control | T/C [2]: 88 % of control

CC12CCC(=O)C=C1CCC1C2C(=O)CC2(C)C1CCC2(O)C(=O)Cn1ccc(=O)[nH]c1=O (stereo not given)
T/C (endpoint: mean survival time, dose: 12.5 mg/kg/injection, schedule: Q04DX003 (ip), vehicle: Klucel (hydroxypropylcellulose) (HPC)): 91 % of control | T/C (endpoint: mean survival time, dose: 25.0 mg/kg/injection, schedule: Q04DX003 (ip), vehicle: Klucel (hydroxypropylcellulose) (HPC)): 101 % of control | T/C (endpoint: mean survival time, dose: 50.0 mg/kg/injection, schedule: Q04DX003 (ip), vehicle: Klucel (hydroxypropylcellulose) (HPC)): 98 % of control | T/C (endpoint: mean survival time, dose: 100.0 mg/kg/injection, schedule: Q04DX003 (ip), vehicle: Klucel (hydroxypropylcellulose) (HPC)): 96 % of control | T/C (endpoint: mean survival time, dose: 200.0 mg/kg/injection, schedule: Q04DX003 (ip), vehicle: Klucel (hydroxypropylcellulose) (HPC)): 98 % of control

Nc1nc(N2CCCCC2)c2ncn(C3OC(CO)C(O)C3O)c2n1 (stereo not given)
T/C (endpoint: mean survival time, dose: 12.5 mg/kg/injection, schedule: Q01DX005 (ip), vehicle: water): 106 % of control | T/C (endpoint: mean survival time, dose: 25.0 mg/kg/injection, schedule: Q01DX005 (ip), vehicle: water): 101 % of control | T/C (endpoint: mean survival time, dose: 50.0 mg/kg/injection, schedule: Q01DX005 (ip), vehicle: water): 112 % of control | T/C (endpoint: mean survival time, dose: 100.0 mg/kg/injection, schedule: Q01DX005 (ip), vehicle: water): 96 % of control | T/C (endpoint: mean survival time, dose: 200.0 mg/kg/injection, schedule: Q01DX005 (ip), vehicle: water): 108 % of control

CCC1(C)CCC2C(=CCC3C(C)(C(=O)O)CCCC23C)C1 (stereo not given)
T/C [3]: 103 % of control | T/C [4]: 88 % of control | T/C [5]: 89 % of control

CC(=O)Oc1cc2c3c(c1)CCCN3CCC2
T/C (endpoint: mean survival time, dose: 5.0 mg/kg/injection, schedule: Q04DX003 (ip), vehicle: saline): 102 % of control | T/C (endpoint: mean survival time, dose: 6.25 mg/kg/injection, schedule: Q01DX009 (ip), vehicle: saline with Tween-80): 101 % of control | T/C [6]: 96 % of control

COC(=O)C(CC(C)C)NC(=O)c1ccccc1 (stereo not given)
T/C [3]: 98 % of control | T/C [4]: 97 % of control | T/C [5]: 95 % of control

Cc1ccc(Nc2c3ccccc3nc3ccccc23)cc1
T/C (endpoint: mean survival time, dose: 37.5 mg/kg/injection, schedule: Q04DX003 (ip), vehicle: saline with Tween-80): 101 % of control | T/C (endpoint: mean survival time, dose: 40.0 mg/kg/injection, schedule: Q04DX003 (ip), vehicle: other): 120 % of control | T/C (endpoint: mean survival time, dose: 75.0 mg/kg/injection, schedule: Q04DX003 (ip), vehicle: saline with Tween-80): 102 % of control | T/C (endpoint: mean survival time, dose: 150.0 mg/kg/injection, schedule: Q04DX003 (ip), vehicle: other): 160 % of control

OCC1OC(n2ncc3c(N/N=C/c4ccc(N(CCCl)CCCl)cc4)ncnc32)C(O)C1O (stereo not given)
T/C [7]: 102 % of control | T/C [1]: 93 % of control | T/C [2]: 102 % of control | T/C [8]: 89 % of control | T/C [9]: 93 % of control

CCC1(O)C(=O)OCc2c1cc1n(c2=O)Cc2cc3ccc(C#N)cc3nc2-1 (stereo not given)
T/C (endpoint: median survival time, dose: 2.5 mg/kg/injection, schedule: Q04DX002 (ip), vehicle: saline with Tween-80): 152 % of control | T/C (endpoint: median survival time, dose: 5.0 mg/kg/injection, schedule: Q04DX002 (ip), vehicle: saline with Tween-80): 196 % of control | T/C (endpoint: median survival time, dose: 10.0 mg/kg/injection, schedule: Q04DX002 (ip), vehicle: saline with Tween-80): 250 % of control and 365 % of control | T/C (endpoint: median survival time, dose: 20.0 mg/kg/injection, schedule: Q04DX002 (ip), vehicle: saline with Tween-80): 101 % of control and 103 % of control

O=C1C=CN(C2OC(COC(=O)c3ccccc3)C(O)C2O)C(=O)C1 (stereo not given)
T/C (endpoint: median survival time, dose: 67.0 mg/kg/injection, schedule: Q01DX009 (ip), vehicle: saline + Tween-80 + alcohol): 168 % of control | T/C (endpoint: median survival time, dose: 100.0 mg/kg/injection, schedule: Q01DX009 (ip), vehicle: saline + Tween-80 + alcohol): 169 % of control | T/C (endpoint: median survival time, dose: 150.0 mg/kg/injection, schedule: Q01DX009 (ip), vehicle: saline + Tween-80 + alcohol): 165 % of control | T/C (endpoint: median survival time, dose: 225.0 mg/kg/injection, schedule: Q01DX009 (ip), vehicle: saline + Tween-80 + alcohol): 161 % of control

CN(C)CCCN1c2ccccc2C(C)(C)c2ccccc21
T/C [6]: 105 % of control | T/C [7]: 103 % of control | T/C [1]: 97 % of control | T/C [3]: 86 % of control | T/C [5]: 114 % of control

Cc1cc(S(=O)(=O)O)c(N)cc1Cl
T/C [2]: 106 % of control | T/C [8]: 92 % of control | T/C [9]: 103 % of control

CCOC(=O)CCCCCSc1nn(C2OC(CO)C(O)C2O)c(=O)[nH]c1=O (stereo not given)
T/C (endpoint: mean survival time, dose: 12.5 mg/kg/injection, schedule: Q01DX005 (ip), vehicle: distilled water + Tween-80): 103 % of control | T/C (endpoint: mean survival time, dose: 25.0 mg/kg/injection, schedule: Q01DX005 (ip), vehicle: distilled water + Tween-80): 98 % of control | T/C (endpoint: mean survival time, dose: 50.0 mg/kg/injection, schedule: Q01DX005 (ip), vehicle: distilled water + Tween-80): 104 % of control | T/C (endpoint: mean survival time, dose: 100.0 mg/kg/injection, schedule: Q01DX005 (ip), vehicle: distilled water + Tween-80): 103 % of control | T/C (endpoint: mean survival time, dose: 200.0 mg/kg/injection, schedule: Q01DX005 (ip), vehicle: distilled water + Tween-80): 97 % of control

Cc1ccc(S(=O)(=O)NC(=O)O/N=C/c2ccccn2)cc1
T/C [2]: 100 % of control | T/C [8]: 91 % of control | T/C [9]: 100 % of control

CCCCCCCCN(C=O)CCCCCCCC
T/C (endpoint: mean survival time, dose: 25.0 mg/kg/injection, schedule: Q04DX002 (ip), vehicle: saline with Tween-80): 93 % of control | T/C (endpoint: mean survival time, dose: 50.0 mg/kg/injection, schedule: Q04DX002 (ip), vehicle: saline with Tween-80): 96 % of control | T/C (endpoint: mean survival time, dose: 100.0 mg/kg/injection, schedule: Q04DX002 (ip), vehicle: saline with Tween-80): 104 % of control

CC1=C(c2ccccc2)C(=O)OC1=O
T/C (endpoint: mean survival time, dose: 100.0 mg/kg/injection, schedule: Q04DX002 (ip), vehicle: other): 98 % of control | T/C (endpoint: mean survival time, dose: 200.0 mg/kg/injection, schedule: Q04DX002 (ip), vehicle: other): 103 % of control | T/C (endpoint: mean survival time, dose: 400.0 mg/kg/injection, schedule: Q04DX002 (ip), vehicle: other): 107 % of control

Cc1nc2cc3ccccc3cc2n1C1OC(CO)C(O)C1O (stereo not given)
T/C (endpoint: median survival time, dose: 26.5 mg/kg/injection, schedule: Q01DX005 (ip), vehicle: saline with Tween-80): 92 % of control | T/C (endpoint: median survival time, dose: 53.0 mg/kg/injection, schedule: Q01DX005 (ip), vehicle: saline with Tween-80): 103 % of control | T/C (endpoint: median survival time, dose: 106.0 mg/kg/injection, schedule: Q01DX005 (ip), vehicle: saline with Tween-80): 93 % of control | T/C (endpoint: median survival time, dose: 212.0 mg/kg/injection, schedule: Q01DX005 (ip), vehicle: saline with Tween-80): 88 % of control

O=C(Nc1ccccc1)c1ccccc1C(O)(c1ccccc1)c1ccccn1 (stereo not given)
T/C [3]: 97 % of control | T/C [4]: 101 % of control | T/C [5]: 86 % of control

CCOC(=O)CCC1(CCC(=O)OCC)OCCO1
T/C [3]: 93 % of control | T/C (endpoint: mean survival time, dose: 100.0 mg/kg/injection, schedule: Q04DX003 (ip), vehicle: saline): 100 % of control | T/C [4]: 98 % of control | T/C (endpoint: mean survival time, dose: 200.0 mg/kg/injection, schedule: Q04DX003 (ip), vehicle: saline): 96 % of control | T/C [5]: 98 % of control | T/C (endpoint: mean survival time, dose: 400.0 mg/kg/injection, schedule: Q04DX003 (ip), vehicle: saline): 100 % of control

COC(=O)C(CSCc1ccccc1)NC(=O)CNC(=O)c1ccccc1 (stereo not given) (Bz-Gly-[ξC](Bn)-OMe)
T/C (endpoint: mean survival time, dose: 100.0 mg/kg/injection, schedule: Q01DX001 (ip), vehicle: saline with Tween-80): 98 % of control | T/C [2]: 91 % of control | T/C (endpoint: mean survival time, dose: 200.0 mg/kg/injection, schedule: Q01DX001 (ip), vehicle: saline with Tween-80): 93 % of control | T/C [8]: 94 % of control | T/C (endpoint: mean survival time, dose: 400.0 mg/kg/injection, schedule: Q01DX001 (ip), vehicle: saline with Tween-80): 97 % of control | T/C [9]: 91 % of control
